Assay type in all cases: functional, organism-based
Assay [1] concerns Human immunodeficiency virus. The assay can be described thus: Antiviral activity against Human immunodeficiency virus. The following applies: Human immunodeficiency virus 1.
In a further assay the test system is Hepatitis B virus. Briefly: Antiviral activity against Hepatitis B virus.
For assay [2], the system named is Human immunodeficiency virus. Briefly: Antiviral activity against Human immunodeficiency virus infected in MT4 cell incubated for 72 hrs by CPE based microscopic assay. The following applies: Human immunodeficiency virus 1, MT4, 72 h.

Four compounds from ChEMBL document CHEMBL5241061, “Advance of structural modification of nucleosides scaffold” (Eur J Med Chem, 2021) can be followed below.

The structures appear in SMILES notation.

Regarding `Nc1ncnc2c1ncn2[C@@H]1CC[C@H](CO)O1`, the half-maximal effective concentration (EC50) came out at 8.2 µM in assay [1] and 6 µM in the assay on Hepatitis B virus.
`Nc1ncnc2c1ncn2[C@H]1O[C@@H](CO)[C@H](O)C1(F)F`: the EC50 in assay [1] was 3.4 µM; with Hepatitis B virus, 20 µM.
In assay [2], `Cc1cn(C2CC(N=[N+]=[N-])C(CO[PH](=O)OC3CCC4(C)C(C=CC5C4CCC4(C)C(C(C)CCCC(C)C)CCC54)C3)O2)c(=O)[nH]c1=O` (configuration not stated) registered an EC50 of 0.001 µM.
As for `Nc1ncnc2c1ncn2[C@@H]1C=C[C@H](CO)O1`, the EC50 in assay [1] worked out at 0.38 µM; in the assay on Hepatitis B virus it was 1.2 µM.

As a reminder, the EC50 is the midpoint of the concentration-response curve. The low end stands for a more potent agent, the high end for a less potent agent.
